In ChEMBL document CHEMBL1201862, “PubChem BioAssay data set” (2004):
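Protocol summary: plate cells (96-well), add compound at 5 concentrations, incubate 48 h, interpolate endpoints linearly. GI50 is the concentration that inhibits growth by half.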 Activity calls are given as the source filed them. Cut-off read from the data, not from the text of the source: active = GI50 up to about 1.1 µM and inactive = higher. Where a SMILES comes first, the peptide text is derived from it. The star is where a group is joined. Cbz = O=C(OCc1ccccc1)*; NHNH2 = NN*

How the values were obtained:
Assay in all cases: NCI tumour cell line growth inhibition, 48 h
[1] = tested on: CAKI-1
[2] = tested on: SR
[3] = tested on: OVCAR-3
[4] = tested on: RXF 393
[5] = tested on: UO-31
[6] = tested on: ACHN
[7] = tested on: EKVX
[8] = tested on: HCT-15
[9] = tested on: K562
[10] = tested on: SF-268
[11] = tested on: NCI-H23
[12] = tested on: MCF7
[13] = tested on: COLO 205
[14] = tested on: SF-295
[15] = tested on: SK-MEL-28
[16] = tested on: SN12C
[17] = tested on: LOX IMVI
[18] = tested on: NCI-H522
[19] = tested on: HOP-92
[20] = tested on: OVCAR-4

SMILES	GI50 [1]	GI50 [2]	GI50 [3]	GI50 [4]	GI50 [5]	GI50 [6]	GI50 [7]	GI50 [8] [µM]	GI50 [9]	GI50 [10]	GI50 [11]	GI50 [12]	GI50 [13]	GI50 [14]	GI50 [15]	GI50 [16]	GI50 [17]	GI50 [18]	GI50 [19]	GI50 [20]
CCOC1=NC(C(F)(F)F)(C(F)(F)F)N=C(/N=C(/N)N(C)C(C(C)C)P(=O)(OC(C)C)OC(C)C)O1 (centres undefined)	> 100 µM (inactive)	55.3 µM (inactive)	67.6 µM (inactive)	41 µM (inactive)	> 100 µM (inactive)	44.7 µM (inactive)	52 µM (inactive)	58.7	34.7 µM (inactive)	48.4 µM (inactive)	95.3 µM (inactive)	> 100 µM (inactive)	> 100 µM (inactive)	83.8 µM (inactive)	> 100 µM (inactive)	76 µM (inactive)	81.5 µM (inactive)	27.9 µM (inactive)		
CSc1nc(-c2ccc(C)cc2)c(C#N)c(=O)[nH]1	> 100 µM (inactive)		> 100 µM (inactive)	> 100 µM (inactive)	52 µM (inactive)	> 100 µM (inactive)	> 100 µM (inactive)	> 100	> 100 µM (inactive)	> 100 µM (inactive)	> 100 µM (inactive)	> 100 µM (inactive)	> 100 µM (inactive)	> 100 µM (inactive)	> 100 µM (inactive)	> 100 µM (inactive)		> 100 µM (inactive)	85.3 µM (inactive)	> 100 µM (inactive)
CCCCNC(=O)Nc1c(C(N)=O)c2n(c1C(=O)OCC)CCCCC2	> 100 µM (inactive)	75.9 µM (inactive)		> 100 µM (inactive)	> 100 µM (inactive)	> 100 µM (inactive)	> 100 µM (inactive)	> 100	> 100 µM (inactive)	> 100 µM (inactive)	> 100 µM (inactive)	> 100 µM (inactive)	> 100 µM (inactive)	> 100 µM (inactive)	> 100 µM (inactive)		> 100 µM (inactive)		> 100 µM (inactive)	> 100 µM (inactive)
O=C(OCCN=c1c2ccccc2ccc2ccccc12)c1cc([N+](=O)[O-])cc([N+](=O)[O-])c1	> 100 µM (inactive)	> 100 µM (inactive)	40.6 µM (inactive)	> 100 µM (inactive)	> 100 µM (inactive)	> 100 µM (inactive)	> 100 µM (inactive)	> 100	> 100 µM (inactive)	> 100 µM (inactive)	> 100 µM (inactive)	> 100 µM (inactive)	> 100 µM (inactive)	> 100 µM (inactive)	> 100 µM (inactive)	> 100 µM (inactive)	> 100 µM (inactive)		> 100 µM (inactive)	36.1 µM (inactive)
CSC(=S)N/N=C(\C)c1ccc(S(=O)(=O)N(C)c2ccccc2)cc1	50.5 µM (inactive)	5.19 µM (inactive)	16.7 µM (inactive)	77.8 µM (inactive)	15.7 µM (inactive)	22.6 µM (inactive)	21.8 µM (inactive)	34.2	13.9 µM (inactive)	9.44 µM (inactive)	19.1 µM (inactive)	18.2 µM (inactive)	68.4 µM (inactive)	12.8 µM (inactive)	34.8 µM (inactive)	> 100 µM (inactive)	18.3 µM (inactive)		23.8 µM (inactive)	25.6 µM (inactive)
OCC1OC(n2nc(-c3ccccc3)nc2-c2cnccn2)C(O)C(O)C1O (centres undefined)			> 100 µM (inactive)		> 100 µM (inactive)			> 100	> 100 µM (inactive)		> 100 µM (inactive)	> 100 µM (inactive)	> 100 µM (inactive)	> 100 µM (inactive)	> 100 µM (inactive)	> 100 µM (inactive)	> 100 µM (inactive)	> 100 µM (inactive)	> 100 µM (inactive)	> 100 µM (inactive)
COc1ccccc1C(=O)Nc1ccc(Cl)c(C(=O)OC(C)C)c1	> 67 µM (inactive)		> 46.1 µM (inactive)	25 µM (inactive)	18.5 µM (inactive)	16 µM (inactive)	39.9 µM (inactive)	32.1	28.4 µM (inactive)	> 50.6 µM (inactive)	13.5 µM (inactive)	42 µM (inactive)	> 61.5 µM (inactive)	36.6 µM (inactive)	36.2 µM (inactive)	52.2 µM (inactive)	43 µM (inactive)	33.2 µM (inactive)	42.3 µM (inactive)	42.4 µM (inactive)
CC(=O)C1(C(=O)C(=[N+]=[N-])S(=O)(=O)c2ccccc2)CC1		> 100 µM (inactive)	> 100 µM (inactive)	> 100 µM (inactive)	> 100 µM (inactive)	> 100 µM (inactive)	> 100 µM (inactive)	> 100	80.4 µM (inactive)	> 100 µM (inactive)	> 100 µM (inactive)	> 100 µM (inactive)	> 100 µM (inactive)	> 100 µM (inactive)	> 100 µM (inactive)	> 100 µM (inactive)	> 100 µM (inactive)	> 100 µM (inactive)		
C=CCOC1=C(OC(C)=O)C(C2COC(C)(C)O2)OC1=O (centres undefined)	1.95 µM (inactive)		17.9 µM (inactive)	21.2 µM (inactive)	18.6 µM (inactive)	17.9 µM (inactive)	20.1 µM (inactive)	16.3	18 µM (inactive)	31.6 µM (inactive)	17.8 µM (inactive)	16.7 µM (inactive)	20 µM (inactive)	36 µM (inactive)	22.2 µM (inactive)	24.5 µM (inactive)	11.7 µM (inactive)	2.19 µM (inactive)	17.7 µM (inactive)	21.5 µM (inactive)
Brc1cccc(C2(CCCC3(c4cccc(Br)n4)OCCO3)OCCO2)n1	> 100 µM (inactive)		> 100 µM (inactive)	72.4 µM (inactive)	> 100 µM (inactive)	> 100 µM (inactive)	> 100 µM (inactive)	> 100	> 100 µM (inactive)	21.2 µM (inactive)	> 100 µM (inactive)	> 100 µM (inactive)	> 100 µM (inactive)	68.7 µM (inactive)	> 100 µM (inactive)	> 100 µM (inactive)	> 100 µM (inactive)	36.6 µM (inactive)	> 100 µM (inactive)	> 100 µM (inactive)
CC(C)CNC(=O)Cn1c2c(c3ccccc31)CCCC2	79.3 µM (inactive)	> 100 µM (inactive)	39 µM (inactive)		28.3 µM (inactive)	33 µM (inactive)	71 µM (inactive)	> 100	76.9 µM (inactive)	37.5 µM (inactive)	> 100 µM (inactive)	> 100 µM (inactive)	73.8 µM (inactive)	35.8 µM (inactive)	> 100 µM (inactive)	> 100 µM (inactive)	39.5 µM (inactive)		43.8 µM (inactive)	35.4 µM (inactive)
O=C(N/C(=C\c1ccccc1)C1Nc2ccccc2C(=O)O1)c1ccccc1 (centres undefined)	> 100 µM (inactive)		27.3 µM (inactive)	23.6 µM (inactive)	19.6 µM (inactive)	39.5 µM (inactive)	> 100 µM (inactive)	31.8	21.5 µM (inactive)	44 µM (inactive)	37.5 µM (inactive)	45.8 µM (inactive)	30.4 µM (inactive)	37 µM (inactive)	23.7 µM (inactive)	28.2 µM (inactive)	18.2 µM (inactive)	16.3 µM (inactive)	> 100 µM (inactive)	53.7 µM (inactive)
CCOC(=O)CCC(NC(=O)OCc1ccccc1)C(=O)NC(CCC(=O)OCC)C(=O)NN (centres undefined) (Cbz-Glu(OEt)-Glu(OEt)-NHNH2; configuration not given here)		> 100 µM (inactive)			> 100 µM (inactive)	> 100 µM (inactive)	> 100 µM (inactive)	> 100	> 100 µM (inactive)			> 100 µM (inactive)	> 100 µM (inactive)		> 100 µM (inactive)	> 100 µM (inactive)			> 100 µM (inactive)	
CCOC(=O)c1c(-c2ccc(Br)cc2)ccn1C	> 10 µM (inactive)		> 10 µM (inactive)	4.65 µM (inactive)		> 10 µM (inactive)	> 10 µM (inactive)	> 10	> 10 µM (inactive)	> 10 µM (inactive)	> 10 µM (inactive)	> 10 µM (inactive)	> 10 µM (inactive)	> 10 µM (inactive)	> 10 µM (inactive)	> 10 µM (inactive)	> 10 µM (inactive)	> 10 µM (inactive)		> 10 µM (inactive)
CCCCCCCCCCCc1noc2c1C(=O)C(O)CC2 (centres undefined)	32.8 µM (inactive)	27.2 µM (inactive)	17.5 µM (inactive)	14.2 µM (inactive)	23.3 µM (inactive)	32.8 µM (inactive)	33.5 µM (inactive)	20.7	17.2 µM (inactive)	38.5 µM (inactive)	16.3 µM (inactive)		30.5 µM (inactive)	21.2 µM (inactive)	23.8 µM (inactive)	16.1 µM (inactive)	18.1 µM (inactive)	20.5 µM (inactive)	20.1 µM (inactive)	16.6 µM (inactive)
COc1ccc(C2=C(OC(=O)N(C)C)c3cccn3-c3cc(Cl)ccc3S2)cc1	> 10 µM (inactive)	6.38 µM (inactive)		> 10 µM (inactive)			> 10 µM (inactive)	> 10	8.91 µM (inactive)	> 10 µM (inactive)	> 10 µM (inactive)	8.51 µM (inactive)	> 10 µM (inactive)	> 10 µM (inactive)	> 10 µM (inactive)	> 10 µM (inactive)	> 10 µM (inactive)		6.78 µM (inactive)	6.79 µM (inactive)
